Literature values in patent US11197931B2, “Liquid injectable copolymer” (Queen's University at Kingston, priority 2017, dated 2021).

Conditions: 25° C.

In the case of C[C@]12C=CC(=O)C=C1CC[C@H]1[C@@H]3C[C@@H](O)[C@](O)(C(=O)CO)[C@@]3(C)C[C@H](O)[C@@]12F [triamcinolone], the saturation concentration is listed as 80 mg/L.
